The subject of assay [1] is Plasmodium falciparum. Put plainly: Antimalarial activity against Plasmodium falciparum. Format: functional, organism-based.
The subject of assay [2] is Plasmodium falciparum. Put plainly: microbe, parasite or virus in culture. The settings on record: isolate AK022 D-28.
Description: Antimalarial activity against Plasmodium falciparum isolate AK022 D-28
Assay [3] has as its system Plasmodium falciparum. Kind of assay: microbe, parasite or virus in culture. The settings on record: isolate 8966.
Description: Antimalarial activity against Plasmodium falciparum isolate 8966
Assay [4] concerns Plasmodium falciparum. Kind of assay: microbe, parasite or virus in culture.
Description: Antimalarial activity against Plasmodium falciparum harboring pfmdr1 gene with 2 DNNND repeat
For assay [5], the system named is Plasmodium falciparum. Kind of assay: microbe, parasite or virus in culture. The settings on record: isolate AK152 D-56.
Description: Antimalarial activity against Plasmodium falciparum isolate AK152 D-56
Assay [6] relates to Plasmodium falciparum. Kind of assay: microbe, parasite or virus in culture. The settings on record: isolate AK062.
Description: Antimalarial activity against Plasmodium falciparum isolate AK062
Assay [7] relates to Plasmodium falciparum. Put plainly: Antimalarial activity against Plasmodium falciparum harboring 1 DNNND repeat. It is filed as functional, organism-based.
Assay [8] deals with Plasmodium falciparum. Kind of assay: microbe, parasite or virus in culture. The settings on record: isolate 9067.
Description: Antimalarial activity against Plasmodium falciparum isolate 9067
In assay [9] the test system is Plasmodium falciparum. Put plainly: microbe, parasite or virus in culture. The settings on record: isolate 8968.
Description: Antimalarial activity against Plasmodium falciparum isolate 8968
Assay [10] deals with Plasmodium falciparum. Kind of assay: microbe, parasite or virus in culture. The source holds these as a separate data set.
Description: Antimalarial activity against Plasmodium falciparum harboring 2 DNNND repeat
For assay [11], the system named is Plasmodium falciparum. Kind of assay: Antimalarial activity against Plasmodium falciparum harboring pfcrt-76 mutant gene with 2 DNNND repeat. Format: functional, organism-based.
Assay [12] deals with Plasmodium falciparum. Kind of assay: microbe, parasite or virus in culture. The settings on record: isolate AK222.
Description: Antimalarial activity against Plasmodium falciparum isolate AK222
For assay [13], the system named is Plasmodium falciparum. Kind of assay: microbe, parasite or virus in culture. The settings on record: isolate CDA-1553.
Description: Antimalarial activity against Plasmodium falciparum isolate CDA-1553
In assay [14] the test system is Plasmodium falciparum. Put plainly: microbe, parasite or virus in culture. The settings on record: isolate 8885.
Description: Antimalarial activity against Plasmodium falciparum isolate 8885
Assay [15] has as its system Plasmodium falciparum. Put plainly: Antimalarial activity against Plasmodium falciparum harboring pfcrt-76 mutant gene. It is filed as functional, organism-based.
For assay [16], the system named is Plasmodium falciparum. Put plainly: microbe, parasite or virus in culture. The settings on record: isolate AK158.
Description: Antimalarial activity against Plasmodium falciparum isolate AK158
For assay [17], the system named is Plasmodium falciparum. Kind of assay: Antimalarial activity against Plasmodium falciparum harboring pfmdr1-86 mutant gene. It is filed as functional, organism-based.
The subject of assay [18] is Plasmodium falciparum. Put plainly: microbe, parasite or virus in culture. This is another data set of the same source.
Description: Antimalarial activity against Plasmodium falciparum harboring pfmdr1 gene
The subject of assay [19] is Plasmodium falciparum. Kind of assay: microbe, parasite or virus in culture. The settings on record: isolate AK033 D-0.
Description: Antimalarial activity against Plasmodium falciparum isolate AK033 D-0
Assay [20] has as its system Plasmodium falciparum. Kind of assay: microbe, parasite or virus in culture. The settings on record: isolate AK167.
Description: Antimalarial activity against Plasmodium falciparum isolate AK167
In assay [21] the test system is Plasmodium falciparum. Put plainly: microbe, parasite or virus in culture. The settings on record: isolate AK249.
Description: Antimalarial activity against Plasmodium falciparum isolate AK249
Assay [22] concerns Plasmodium falciparum. Put plainly: microbe, parasite or virus in culture. The settings on record: isolate AK150 D-42.
Description: Antimalarial activity against Plasmodium falciparum isolate AK150 D-42
Assay [23] has as its system Plasmodium falciparum. Kind of assay: microbe, parasite or virus in culture. The settings on record: isolate 9070.
Description: Antimalarial activity against Plasmodium falciparum isolate 9070
For assay [24], the system named is Plasmodium falciparum. Put plainly: Antimalarial activity against Plasmodium falciparum harboring 3 DNNND repeat. Format: functional, organism-based.
The test system of assay [25] is Plasmodium falciparum. Kind of assay: microbe, parasite or virus in culture. The settings on record: isolate AK033 D-49.
Description: Antimalarial activity against Plasmodium falciparum isolate AK033 D-49
Assay [26] concerns Plasmodium falciparum. Kind of assay: Antimalarial activity against Plasmodium falciparum harboring pfmdr1-86 mutant gene with 2 DNNND repeat. Format: functional, organism-based.
In assay [27] the test system is Plasmodium falciparum. Kind of assay: microbe, parasite or virus in culture. The settings on record: 3D7.
Description: Antimalarial activity against Plasmodium falciparum 3D7
The subject of assay [28] is Plasmodium falciparum. Put plainly: microbe, parasite or virus in culture. The settings on record: isolate AK022D-0.
Description: Antimalarial activity against Plasmodium falciparum isolate AK022D-0
Assay [29] concerns Plasmodium falciparum. Kind of assay: microbe, parasite or virus in culture. The settings on record: isolate 8973.
Description: Antimalarial activity against Plasmodium falciparum isolate 8973
Assay [30] concerns Plasmodium falciparum. Put plainly: microbe, parasite or virus in culture. The settings on record: isolate AK183.
Description: Antimalarial activity against Plasmodium falciparum isolate AK183

SMILES strings stand for the structures.

A word on the IC50: it is the concentration needed to halve the response being measured. As for `Clc1ccc2c(N3CCN(CCCN4CCN(c5ccnc6cc(Cl)ccc56)CC4)CC3)ccnc2c1` [PIPERAQUINE], half-maximal inhibition in assay [1] (IC50) was put at 56 nM.
The same measure, in the same setting: with `C[C@H]1[C@@H](O)O[C@@H]2O[C@@]3(C)CC[C@H]4[C@H](C)CC[C@@H]1[C@@]24OO3` [ARTENIMOL] the figure was 1 nM.
One may read the IC90 as the concentration at which the effect reaches the 90% level. `C=C[C@H]1CN2CC[C@H]1C[C@H]2[C@H](O)c1ccnc2ccc(OC)cc12` [QUININE]: the 50% inhibitory concentration (IC50) in assay [2] turned out to be 22 nM; in assay [3], 55.8 nM; in assay [4], 92 nM; in [5], 208 nM; in assay [6], 182 nM; in assay [8] it was 80.1 nM. Besides, the IC50 in [9] is 30.6 nM; in [10] it was 227 nM; in assay [11], 234 nM; in [12], 210 nM; in assay [13], 333 nM; in assay [14], 78.2 nM. Further, the IC50 worked out at 164 nM in assay [15]; 234 nM in assay [16]; 208 nM in [17]; 74 nM in assay [18]; 32.8 nM in assay [19]; 227 nM in assay [20]. Besides, the IC50 amounted to 270 nM in [21]; 91.6 nM in assay [22]; 41.5 nM in assay [23]; 45 nM in assay [24]; 54.1 nM in assay [25]; 249 nM in assay [26]. The IC50 in [27] was determined as 27.1 nM; in assay [28], 42.4 nM; in assay [29], 20 nM; in assay [30] it was 73.9 nM. For the same molecule, the IC90 is 157 nM in assay [7] and 125 nM in [24].
With `CCCCN(CCCC)CC(O)c1cc(Cl)cc2c1-c1ccc(Cl)cc1/C2=C/c1ccc(Cl)cc1` (stereo not drawn) [LUMEFANTRINE], the IC50 in [1] is 56 nM.

The record behind these values is ChEMBL document CHEMBL1629706 (Antimicrob Agents Chemother, 2010).
